Measurements: patent US20090170872A1, “Compounds and Their Pharmaceutical Use” (Orchid Research Laboratories Limited, priority 2005, published 2009)

Legend:
serum TNF-α production = assay: In-vivo TNF-α inhibition assay (LPS-induced serum TNF-α in mice); details: male Swiss albino mice, oral, serum 90 minutes after LPS challenge
Description: TNF-α inhibitory activity is assessed by in-vivo inhibition of serum TNF-α production in mice. This method is used to assess the inhibitory actions of compounds, on TNF-[…] production in mouse (Griswold et al J Pharmacol Exp Ther 287,705, 1998, Garcia et al, Histol Histopathol 5(1), 43, 1990, and Victor et al, Physiol Res 52,789, 2003). Male Swiss albino mice with body weights equivalent within each group are selected. The animals are fasted for eighteen hours with free access to water. The control group receives only LPS and the drug treatment group receives LPS and the test compound. At the start of the experiment, the drug is administered orally. Thirty minutes later, the animals are given intraperitoneal injection with lipo-polysaccharide (LPS). Blood samples are withdrawn 90 minutes after the LPS challenge, which is the time point of maximal elevation of serum TNF-α activity. Blood was centrifuged for 10 minutes at 4° C. Serum samples were assayed for TNF-[…] levels using Mouse ELISA kit. The Percent Inhibition of TNF-α production is determined by comparison with LPS-treated and LPS/drug treated groups.

COX-2 = target: T1, COX-2 (Homo sapiens, UniProt P35354); assay: COX-2 enzyme based assay (purified recombinant enzyme, prostaglandin EIA); type: biochemical
T1 sequence (P35354 18-604): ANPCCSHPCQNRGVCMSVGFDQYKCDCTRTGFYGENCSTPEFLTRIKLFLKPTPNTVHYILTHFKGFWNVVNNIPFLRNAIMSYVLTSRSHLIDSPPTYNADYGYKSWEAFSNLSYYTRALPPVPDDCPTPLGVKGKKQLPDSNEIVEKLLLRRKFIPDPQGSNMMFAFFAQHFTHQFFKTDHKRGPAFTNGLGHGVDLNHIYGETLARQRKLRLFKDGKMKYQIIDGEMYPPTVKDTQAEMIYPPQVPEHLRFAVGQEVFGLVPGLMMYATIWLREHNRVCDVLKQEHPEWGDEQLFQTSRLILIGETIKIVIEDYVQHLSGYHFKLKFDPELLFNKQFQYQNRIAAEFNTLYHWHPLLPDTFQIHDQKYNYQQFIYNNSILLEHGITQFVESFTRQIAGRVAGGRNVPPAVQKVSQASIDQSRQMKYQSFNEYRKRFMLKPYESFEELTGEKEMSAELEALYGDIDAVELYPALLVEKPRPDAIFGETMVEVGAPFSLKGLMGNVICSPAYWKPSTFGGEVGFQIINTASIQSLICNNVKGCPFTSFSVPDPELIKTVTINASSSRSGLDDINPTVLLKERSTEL
Description: (§1) COX-1 and COX-2 enzyme based assays were carried out to check the inhibitory potential of test compounds on the production of prostaglandin by purified recombinant COX-1/COX-2 enzyme (Proc. Nat. Acad. Sci. USA, 88, 2692-2696, 1991; J. Clin. Immunoassay 15, 116-120, 1992) In this assay, the potential of the test compound to inhibit the production of prostaglandin's either by COX-1 or COX-2 from arachidonic acid (substrate) was measured. This was an enzyme based in-vitro assay to evaluate selective COX inhibition with good reproducibility.
(§2) Arachidonic acid was converted to PGH2 (Intermediate product) by COX1/COX-2 in the presence or absence of the test compound. The reaction was carried out at 37° C. and after 2 minutes it was stopped by adding 1M HCl. The intermediate product PGH2 was converted to a stable prostanoid product PGF2α by SnCl2 reduction. The amount of PGF2α produced in the reaction was inversely proportional to the COX inhibitory potential of the test compound. The prostanoid product was quantified via enzyme immunoassay (EIA) using a broadly specific antibody that binds to all the major forms of prostaglandin, using Cayman ELISA kit as per the procedure outlined by the manufacturer (Cayman Chemicals, Ann Arbor, USA).

COX-1 = COX-1 (Homo sapiens, UniProt P23219); assay: COX-1 enzyme based assay (purified recombinant enzyme, prostaglandin EIA); type: biochemical
COX-1, sequence (P23219 24-599): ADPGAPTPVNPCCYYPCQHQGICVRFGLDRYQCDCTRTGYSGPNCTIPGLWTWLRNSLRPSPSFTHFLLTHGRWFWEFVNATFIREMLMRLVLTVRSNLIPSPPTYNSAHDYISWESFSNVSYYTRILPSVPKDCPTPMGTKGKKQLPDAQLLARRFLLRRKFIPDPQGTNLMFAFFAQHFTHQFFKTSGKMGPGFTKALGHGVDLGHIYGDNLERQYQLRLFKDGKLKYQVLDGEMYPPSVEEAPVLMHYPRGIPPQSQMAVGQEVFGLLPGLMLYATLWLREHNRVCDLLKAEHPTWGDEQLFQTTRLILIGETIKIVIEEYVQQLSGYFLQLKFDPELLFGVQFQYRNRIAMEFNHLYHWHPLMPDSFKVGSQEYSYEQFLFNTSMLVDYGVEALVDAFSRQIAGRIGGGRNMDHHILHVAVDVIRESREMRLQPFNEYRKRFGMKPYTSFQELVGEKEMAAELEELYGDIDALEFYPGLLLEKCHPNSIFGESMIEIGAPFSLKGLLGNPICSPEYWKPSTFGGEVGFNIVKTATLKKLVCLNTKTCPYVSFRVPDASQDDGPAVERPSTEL
Description: as §1, §2

IL-6 = IL-6 production in LPS-stimulated human whole blood (ELISA); type: cell-based; details: LPS 4 hours, read-out: % IL-6 Inhibitory Activity (hPBMC)
Description: This assay determines the effect of test compounds on the production of IL-6 from human whole blood. Compounds are tested for their ability to downregulate the production of IL-6 in activated whole blood. The test compounds are pre-incubated for 15 minutes at 37° C. and then stimulated with Lipopolysaccharide (Salmonella abortus equi, 1 µg/ml) for 4 hours at 37° C. in 5% CO2. The levels of IL-6 are estimated using Enzyme linked Immunosorbent assay performed in a 96 well format as per the procedure of the manufacturer. (Cayman Chemical, Ann Arbor, USA).

TNF-α = TNF-α production in LPS-stimulated human whole blood (ELISA); type: cell-based; details: LPS 4 hours, read-out: % TNF-α Inhibitory Activity in (hPBMC)
Description: This assay determines the effect of the test compounds on the production of TNF-α in human whole blood. TNF-α assay is carried out as described by Armin Hatzelmann and Christian Schudt (J Pharm Exp Ther 297, 261, 2001). Compounds are tested for their ability to inhibit the activity of TNF-α in human whole blood. The test compounds are pre-incubated for 15 minutes at 37° C. and then stimulated with Lipopolysaccharide (Salmonella abortus equi, 1 µg/ml) for 4 hours at 37° C. in 5% CO2. The levels of TNF-α are estimated using Enzyme linked Immunosorbent assay performed in a 96 well format as per the procedure of the manufacturer (Cayman Chemical, Ann Arbor, USA).

Row | SMILES | inhibition at 1 µM (COX-2) | inhibition at 10 µM (COX-2) | inhibition at 10 µM (COX-1) | melting point | % TNF-α inhibition in in vivo sepsis in mice (serum TNF-α production) | inhibition at 1 µM (IL-6) | inhibition at 10 µM (IL-6) | inhibition at 1 µM (TNF-α) | inhibition at 10 µM (TNF-α)
1 | Cc1nccn1CC1CCc2c(c3ccccc3n2C)/C1=N/Oc1ccc(Br)cn1 (stereo not drawn) [Example 17, (4E)-9-methyl-3-[(2-methyl-1H-imidazol-1-yl)methyl]-1,2,3,9-tetrahydro-4H-carbazol-4-one O-[5-bromo-pyridin-2-yl]oxime] | 41.5% | 42.7% |  |  | 82.69% |  |  |  | 
2 | COc1cc(O/N=C2/c3c(n(C)c4ccccc34)CCC2Cn2ccnc2C)nc(OC)n1 (stereo not drawn) [Example 20, (4E)-9-methyl-3-[(2-methyl-1H-imidazol-1-yl)methyl]-1,2,3,9-tetrahydro-4H-carbazol-4-one O-(2,6-dimethoxypyrimidin-4-yl)oxime] | 32.7% | 34.9% | 39.1% |  |  |  |  |  | 
3 | Cc1nccn1CC1CCc2c(c3ccccc3n2C)/C1=N/Oc1ccc(C(F)(F)F)cn1 (stereo not drawn) [Example 21, (4E)-9-methyl-3-[(2-methyl-1H-imidazol-1-yl)methyl]-1,2,3,9-tetrahydro-4H-carbazol-4-one O-[5-trifluoromethyl-pyridin-2-yl]oxime] | 23% | 23.6% |  |  |  |  |  |  | 
4 | Cc1nccn1CC1CCc2c(c3ccccc3n2C)/C1=N/OC(=O)c1ccccc1Cl (stereo not drawn) [Example 37, (4E)-9-methyl-3-[(2-methyl-1H-imidazol-1-yl)methyl]-1,2,3,9-tetrahydro-4H-carbazol-4-one O-2-chlorobenzoyloxime] |  |  |  | 111 to 116 °C |  | 21.1% | 32.2% | 14.5% | 42.1%
5 | Cc1nccn1CC1CCc2c(c3ccccc3n2C)/C1=N/OC(=O)c1ccccc1Br (stereo not drawn) [Example 39, (4E)-9-methyl-3-[(2-methyl-1H-imidazol-1-yl)methyl]-1,2,3,9-tetrahydro-4H-carbazol-4-one O-2-bromobenzoyloxime] |  |  |  | 108 to 112 °C |  | 28.5% | 19.1% | 26.1% | 45.8%
6 | Cc1nccn1CC1CCc2c(c3ccccc3n2C)/C1=N/OC(=O)c1cccc(Cl)n1 (stereo not drawn) [Example 40, (4E)-9-methyl-3-[(2-methyl-1H-imidazol-1-yl)methyl]-1,2,3,9-tetrahydro-4H-carbazol-4-one O-6-chloropyridinoyloxime] |  |  |  | 170 to 175 °C |  | 20.5% | 21.3% |  | 

More lines, main results first:

Row | inhibition at 1 µM (COX-2) | inhibition at 10 µM (COX-2) | inhibition at 10 µM (COX-1) | melting point | SMILES | % TNF-α inhibition in in vivo sepsis in mice (serum TNF-α production) | inhibition at 1 µM (IL-6) | inhibition at 10 µM (IL-6) | inhibition at 1 µM (TNF-α) | inhibition at 10 µM (TNF-α)
7 |  |  |  | 175 to 178 °C | CCc1ccc(C(=O)O/N=C2/c3c(n(C)c4ccccc34)CCC2Cn2ccnc2C)cc1 (stereo not drawn) [Example 41, (4E)-9-methyl-3-[(2-methyl-1H-imidazol-1-yl)methyl]-1,2,3,9-tetrahydro-4H-carbazol-4-one O-4-ethylbenzoyloxime] |  | 7.63% | 3.09% |  | 
8 |  |  |  | 98 to 106 °C | Cc1nccn1CC1CCc2c(c3ccccc3n2C)/C1=N/OC(=O)C1CCCCC1 (stereo not drawn) [Example 42, (4E)-9-methyl-3-[(2-methyl-1H-imidazol-1-yl)methyl]-1,2,3,9-tetrahydro-4H-carbazol-4-one O-cyclohexanoyloxime] |  | 7.96% | 18.5% |  | 
9 |  |  |  | 178 to 180 °C | Cc1nccn1CC1CCc2c(c3ccccc3n2C)/C1=N/OC(=O)c1ccc(C#N)cc1 (stereo not drawn) [Example 44, (4E)-9-methyl-3-[(2-methyl-1H-imidazol-1-yl)methyl]-1,2,3,9-tetrahydro-4H-carbazol-4-one O-4-cyanobenzoyloxime] |  | 13.2% | 22.7% | 23.5% | 45.6%
10 | 42% | 36.5% | 16.4% |  | Cc1nccn1CC1CCc2c(c3ccccc3n2C)/C1=N/OC(=O)c1ccc(Br)s1 (stereo not drawn) [Example 62, (4E)-9-methyl-3-[(2-methyl-1H-imidazol-1-yl)methyl]-1,2,3,9-tetrahydro-4H-carbazol-4-one O-[(5-bromothien-2-yl)carbonyl]oxime] | 86.10% |  |  |  | 
11 |  |  |  | 160 to 166 °C | Cc1nccn1CC1CCc2c(c3ccccc3n2C)/C1=N/OC(=O)c1cccc(C#N)c1 (stereo not drawn) [Example 65, (4E)-9-methyl-3-[(2-methyl-1H-imidazol-1-yl)methyl]-1,2,3,9-tetrahydro-4H-carbazol-4-one O-3-cyanobenzoyloxime] |  | 13.7% | 30.6% |  | 
